Biological target: T1, human URAT1 (Homo sapiens, UniProt Q96S37)
T1 construct: Human URAT1 full length cDNA was subcloned to expression vector pcDNA3.1; expressed in transfected cells; host or cells: HEK293 cells (pcDNA3.1, geneticin-selected)
T1 sequence (Q96S37 1-553): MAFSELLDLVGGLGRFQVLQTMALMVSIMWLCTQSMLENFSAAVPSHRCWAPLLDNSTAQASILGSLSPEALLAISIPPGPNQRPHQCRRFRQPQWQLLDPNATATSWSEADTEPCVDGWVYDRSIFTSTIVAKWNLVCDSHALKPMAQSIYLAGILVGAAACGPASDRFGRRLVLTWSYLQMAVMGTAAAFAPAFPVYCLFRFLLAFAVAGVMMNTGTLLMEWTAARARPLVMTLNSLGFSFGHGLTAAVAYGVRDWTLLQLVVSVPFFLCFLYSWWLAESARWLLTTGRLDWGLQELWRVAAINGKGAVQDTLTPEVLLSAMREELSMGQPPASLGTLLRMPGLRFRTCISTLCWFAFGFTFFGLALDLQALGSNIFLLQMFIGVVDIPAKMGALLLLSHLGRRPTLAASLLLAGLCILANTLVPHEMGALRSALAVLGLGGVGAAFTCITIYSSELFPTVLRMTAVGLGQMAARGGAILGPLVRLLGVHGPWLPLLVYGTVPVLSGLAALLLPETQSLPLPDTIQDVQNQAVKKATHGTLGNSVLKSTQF
Assay: Uric acid transport inhibitory test using human URAT1-expressing cells
Assay type: cell-based
Settings: human URAT1 expressing HEK293 cells, uptake of 14C-labeled uric acid for 5 min, room temperature; read-out: hURAT1 (IC50, concentration necessary for inhibiting the uric acid transport rate by 50%)
Source text: Reference Experimental Example 1 Uric Acid Transport Inhibitory Test Using Human Urat1-Expressing Cells
Human URAT1 full length cDNA was subcloned to expression vector pcDNA3.1 and human URAT1 gene was transfected into human embryonic kidney derived cell line (HEK293 cells) by liposome method using Lipofectamine2000. Simultaneously, HEK293 cells transfected with expression vector pcDNA3.1 alone (hereinafter mock cells) were also produced. HEK293 cells expressing human URAT1 gene or mock cells were selected with geneticin resistance as an index. The functional expression of human URAT1 gene was confirmed by a method similar to the following method, using transport of uric acid labeled with ^14C into the cells as an index.
Human URAT1 expressing HEK293 cells or mock cells were cultured in Dulbecco's modified Eagle's MEM medium (high glucose) containing 10% fetal bovine serum, 0.5 mg/mL geneticin sulfate, 100 units/mL penicillin and 100 μg/mL streptomycin under the conditions of 37° C. and 5% CO2 in an incubator. The cells were plated in a 96 well plate (poly-D-Lysine coated) at 1×10^5 cells/well and the following uric acid transport inhibitory test was performed 24 hr later. This test was performed at room temperature.
After the medium was removed by aspiration from each well, the cells were washed once with Hank's Balanced Salt Solution (HBSS) and preincubated with HBSS ([…]) for 5 min. HBSS was aspirated and an assay buffer (wherein NaCl in the above-mentioned HBSS had been substituted with Na-gluconate) containing various concentrations of the Example compound and a radioactive ligand (uric acid labeled with 14C; final concentration […]) was added to each well at […] and an uptake reaction was carried out for 5 min. After the reaction, the cells were washed twice with ice-cold HBSS ([…]), and Microscin ti TM 20 (PerkinElmer) was added at […]. The cells were lysed by stirring and the radioactivity of each well was measured in a liquid scintillation counter (TOP COUNT, Packard).
The uric acid transport rate (%) of the Example compound at each concentration was calculated relative to the radioactivity (difference in radioactivity between human URAT1 expressing HEK293 cells and mock cells without addition of Example compound (DMSO addition)) showing URAT1 specific uric acid transport as 100%, and the concentration (IC50) of the Example compound necessary for inhibiting the uric acid transport rate by 50% was determined. In Table-Table, “+++” means IC50 value of less than 100 nM, “++” means IC50 value of 100 nM to less than 1000 nM, and “+” means IC50 value of 1000 nM to less than 3000 nM.

| IC50 [nM] | Compound |
| --- | --- |
| < 100 | O=C(c1ccc(O)c(C(F)(F)F)c1)N1CCOc2ccccc21 [Example 39, (2,3-dihydrobenzo[1,4]oxazin-4-yl)-(4-hydroxy-3-trifluoromethylphenyl)-methanone] |
| 100 to 1000 | COc1cc(C(=O)N2CCOc3ccccc32)cc(Cl)c1O [Example 40, (3-chloro-4-hydroxy-5-methoxyphenyl)-(2,3-dihydrobenzo[1,4]oxazin-4-yl)-methanone] |
| 100 to 1000 | O=C(c1ccc(Cl)c(O)c1)N1CCOc2ccccc21 [Example 41, (4-chloro-3-hydroxyphenyl)-(2,3-dihydrobenzo[1,4]oxazin-4-yl)-methanone] |
| < 100 | O=C(c1cc(Cl)c(O)c(Cl)c1)N1CCOc2ccc(F)cc21 [Example 44, (3,5-dichloro-4-hydroxyphenyl)-(6-fluoro-2,3-dihydrobenzo[1,4]oxazin-4-yl)-methanone] |
| 100 to 1000 | O=C(c1cc(Cl)c(O)c(Cl)c1O)N1CCOc2ccccc21 [Example 50, (3,5-dichloro-2,4-dihydroxyphenyl)-(2,3-dihydrobenzo[1,4]oxazin-4-yl)-methanone] |
| < 100 | O=C(c1cc(Cl)c(O)c(Cl)c1)N1CCOc2ccc(Cl)cc21 [Example 51, (6-chloro-2,3-dihydrobenzo[1,4]oxazin-4-yl)-(3,5-dichloro-4-hydroxyphenyl)-methanone] |
| 100 to 1000 | O=C(c1cc(Cl)c(O)c(Cl)c1)N1CCOc2cc(Cl)ccc21 [Example 52, (7-chloro-2,3-dihydrobenzo[1,4]oxazin-4-yl)-(3,5-dichloro-4-hydroxyphenyl)-methanone] |
| 100 to 1000 | O=C(c1cc(Cl)c(O)c(Cl)c1)N1CCNc2ccccc21 [Example 54, (3,5-dichloro-4-hydroxyphenyl)-(3,4-dihydro-2H-quinoxalin-1-yl)-methanone] |
| 100 to 1000 | COC(=O)c1ccc2c(c1)N(C(=O)c1cc(Cl)c(O)c(Cl)c1)CCO2 [Example 55, methyl 4-(3,5-dichloro-4-hydroxybenzoyl)-3,4-dihydro-2H-benzo[1,4]oxazine-6-carboxylate] |
| 100 to 1000 | O=C(c1cc(Cl)c(O)c(Cl)c1)N1CCOc2ccc(CO)cc21 [Example 56, (3,5-dichloro-4-hydroxyphenyl)-(6-hydroxymethyl-2,3-dihydrobenzo[1,4]oxazin-4-yl)-methanone] |
| 100 to 1000 | COC(=O)c1cccc2c1N(C(=O)c1cc(Cl)c(O)c(Cl)c1)CCO2 [Example 58, methyl 4-(3,5-dichloro-4-hydroxybenzoyl)-3,4-dihydro-2H-benzo[1,4]oxazine-5-carboxylate] |
| 1000 to 3000 | COC(=O)c1ccc2c(c1)OCCN2C(=O)c1cc(Cl)c(O)c(Cl)c1 [Example 59, methyl 4-(3,5-dichloro-4-hydroxybenzoyl)-3,4-dihydro-2H-benzo[1,4]oxazine-7-carboxylate] |
| 1000 to 3000 | COC(=O)c1cccc2c1OCCN2C(=O)c1cc(Cl)c(O)c(Cl)c1 [Example 61, methyl 4-(3,5-dichloro-4-hydroxybenzoyl)-3,4-dihydro-2H-benzo[1,4]oxazine-8-carboxylate] |
| 1000 to 3000 | O=C(c1cc(Cl)c(O)c(Cl)c1)N1c2ccccc2Oc2ccccc21 [Example 64, (3,5-dichloro-4-hydroxyphenyl)-phenoxazin-10-ylmethanone] |
| 1000 to 3000 | O=C(c1cc(Cl)c(O)c(Cl)c1)N1CCOc2ccc(-c3ccccc3)cc21 [Example 65, (3,5-dichloro-4-hydroxyphenyl)-(6-phenyl-2,3-dihydrobenzo[1,4]oxazin-4-yl)-methanone] |
| 100 to 1000 | Cc1cc(C)c2c(c1)N(C(=O)c1cc(Cl)c(O)c(Cl)c1)CCO2 [Example 66, (3,5-dichloro-4-hydroxyphenyl)-(6,8-dimethyl-2,3-dihydrobenzo[1,4]oxazin-4-yl)-methanone] |
| < 100 | O=C(c1cc(Cl)c(O)c(Cl)c1)N1CCOc2ccc([N+](=O)[O-])cc21 [Example 67, (3,5-dichloro-4-hydroxyphenyl)-(6-nitro-2,3-dihydrobenzo[1,4]oxazin-4-yl)-methanone] |

Source: US20080064871A1, “Production Method of Nitrogen-Containing Fused Ring Compounds” (Japan Tobacco Inc., priority 2006, published 2008)
